The record followed here is patent US11311590B2, “Anti-inflammatory botanical extract” (Innophos, Inc., priority 2018, dated 2022).

The experiment concerns potato 5-Lipoxygenase enzyme. The experiment in a line: Lipoxygenase Inhibitor Screening Assay Kit (Cayman) with potato 5-Lipoxygenase. The following applies: positive control at 100 μM. The format is biochemical.

Protocol: Research grade reagents were used for the rest of the assay preparations. Extracts were dissolved in dimethyl sulfoxide (‘DMSO’) to a final concentration of 50 mg/mL, and then diluted in appropriate buffer for each bioassay to working concentrations.
This kit measures hydroperoxides produced in the lipoxygenation reaction.
The extracts were dissolved in methanol to final working concentrations. 5-LOX enzyme, Chromagen, and Linoleic Acid solutions were prepared immediately before use. Nordihydroguaiaretic acid (‘NDGA’) was used as a positive control. 5-LOX enzyme was added to the test samples and controls and incubated for five minutes at room temperature to allow for enzyme/inhibitor interaction. Linoleic acid substrate was added to the plate to initiate the reaction, and the plate was then shaken at room temperature for 10 minutes. Chromagen was added to visualize the hydroperoxides formed during the reaction and the plate was shaken at room temperature for another five minutes. The absorbance was then read at 492 nm. Percent inhibition of the extract concentration was calculated in comparison to the uninhibited control wells.

In turn, `CC(Cc1ccc(O)c(O)c1)C(C)Cc1ccc(O)c(O)c1` (stereo not shown) [NDGA, Nordihydroguaiaretic acid] came in with a 5-LOX enzyme inhibition of 100%.
